Test results taken from patent US6900184B2, “Compositions containing pipercillin and tazobactam useful for injection” (Wyeth Holdings Corporation, priority 2003, dated 2005).

Experiment: Light obscuration particulate testing (HIAC-3000, based on USP 788), at time zero and 24 hours
Format: physicochemical
Settings: in Zosyn solutions, summary of Table 1
Protocol: Samples are prepared according to the compositions described in Table I. […] The fluid in the bag is mixed with gentle inversions for about 30 seconds. • The bags are labeled with identity and reconstitution time. • When added, aminoglycosides are added immediately. The fluid in the bag is mixed with gentle inversions for about 30 seconds. • A 50 ml sample is drawn with a 60 cc syringe fitted with a 21-gauge needle. • A clean, particle free vial is rinsed with water for injection, and then filled with about 45 ml of the sample. HIAC testing is performed immediately. • Into a suitably sized sample vial, a 3 ml sample is prepared for HPLC testing. HPLC testing is begun within an hour of sample preparation (Table 1). The remainder of the Zosyn® admixture samples (about 50 ml) are stored in a closed cabinet in the laboratory, at ambient temperature and tested again 24 hours later (Table 1). Light obscuration testing is performed using a HIAC-3000. A testing method, based on USP 788 is followed for the analysis. (See TABLE I) The data is reported on a particle per ml basis. […] The same sample was resampled and analyzed 24 hours after the first test. A summary of the HIAC data is provided as Table I.

| SMILES | effect of added EDTA (edetate disodium dihydrate) on number of particles generated | effect of added aminoglycoside on number of particles generated |
| --- | --- | --- |
| O=C(O)CN(CCN(CC(=O)O)CC(=O)O)CC(=O)O [EDTA, ethylene diamine tetraacetic acid] | significantly reduces the number of particles generated in 24 hours |  |
| NCC[C@H](O)C(=O)N[C@@H]1C[C@H](N)[C@@H](O[C@H]2O[C@H](CN)[C@@H](O)[C@H](O)[C@H]2O)[C@H](O)[C@H]1O[C@H]1O[C@H](CO)[C@@H](O)[C@H](N)[C@H]1O [amikacin] |  | increases the number of particles generated in 24 hours |
